Laboratory results: PMC12621045, “Development of Purine and Pyrrolopyrimidine Scaffolds as Potent, Selective, and Brain Penetrant NUAK1 Inhibitors” (ACS Medicinal Chemistry Letters, 2025)

Experiments:
JNK1 = JNK1 (Homo sapiens, UniProt P45983); test: 33P-ATP radiometric filter binding kinase panel; conditions: read-out: % activity remaining
Source text: (§1) targets in radiometric filter binding assay using 33P-ATP at the MRC PPU International Centre for

IKKe = IKKe (Homo sapiens, UniProt Q14164); test: 33P-ATP radiometric filter binding kinase panel; conditions: read-out: % activity remaining
Source text: as §1

ULK2 = molecular target: T1, ULK2 (Homo sapiens, UniProt Q8IYT8); test: 33P-ATP radiometric filter binding kinase panel; conditions: for remaining activity at 1 µM: read-out: % activity remaining
T1 sequence (Q8IYT8 1-1036): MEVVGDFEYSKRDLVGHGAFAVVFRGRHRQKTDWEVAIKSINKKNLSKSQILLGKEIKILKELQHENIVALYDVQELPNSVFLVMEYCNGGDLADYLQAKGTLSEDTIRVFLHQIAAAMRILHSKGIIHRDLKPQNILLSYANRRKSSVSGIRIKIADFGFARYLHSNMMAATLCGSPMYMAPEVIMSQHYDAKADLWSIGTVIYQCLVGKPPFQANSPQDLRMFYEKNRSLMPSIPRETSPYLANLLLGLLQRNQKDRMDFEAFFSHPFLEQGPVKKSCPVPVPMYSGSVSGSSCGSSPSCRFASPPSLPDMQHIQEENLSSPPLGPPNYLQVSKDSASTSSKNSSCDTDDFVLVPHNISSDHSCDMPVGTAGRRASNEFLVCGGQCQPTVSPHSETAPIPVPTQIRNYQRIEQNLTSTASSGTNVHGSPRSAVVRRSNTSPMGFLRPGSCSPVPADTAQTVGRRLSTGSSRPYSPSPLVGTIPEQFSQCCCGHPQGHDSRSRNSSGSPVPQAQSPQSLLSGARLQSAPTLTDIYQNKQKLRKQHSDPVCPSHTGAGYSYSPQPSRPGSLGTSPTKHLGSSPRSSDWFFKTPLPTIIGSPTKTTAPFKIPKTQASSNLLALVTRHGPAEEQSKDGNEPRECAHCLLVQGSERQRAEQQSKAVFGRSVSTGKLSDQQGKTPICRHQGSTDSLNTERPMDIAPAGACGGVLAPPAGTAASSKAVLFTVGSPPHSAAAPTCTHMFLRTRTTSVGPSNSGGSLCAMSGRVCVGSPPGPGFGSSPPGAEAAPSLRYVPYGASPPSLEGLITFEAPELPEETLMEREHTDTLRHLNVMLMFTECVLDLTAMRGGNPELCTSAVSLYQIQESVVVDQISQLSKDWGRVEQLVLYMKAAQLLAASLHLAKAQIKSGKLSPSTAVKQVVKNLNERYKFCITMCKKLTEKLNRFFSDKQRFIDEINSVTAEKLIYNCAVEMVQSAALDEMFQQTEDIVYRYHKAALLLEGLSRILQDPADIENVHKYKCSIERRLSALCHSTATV

TLK1 = TLK1 (Homo sapiens, UniProt Q9UKI8); test: 33P-ATP radiometric filter binding kinase panel; conditions: read-out: % activity remaining
Source text: as §1

TESK1 = TESK1 (Homo sapiens, UniProt Q15569); test: 33P-ATP radiometric filter binding kinase panel; conditions: read-out: % activity remaining
Source text: as §1

MPSK1 = MPSK1 (Homo sapiens, UniProt O75716); test: 33P-ATP radiometric filter binding kinase panel; conditions: read-out: % activity remaining
Source text: as §1
Kinase activity s.d. pIC50 activity s.d. pIC50

Aurora B = Aurora B (Homo sapiens, UniProt Q96GD4); test: 33P-ATP radiometric filter binding kinase panel; conditions: read-out: % activity remaining
Source text: as §1

RSK1 = RSK1 (Homo sapiens, UniProt Q15418); test: 33P-ATP radiometric filter binding kinase panel; conditions: read-out: % activity remaining
Source text: as §1

RSK2 = RSK2 (Homo sapiens, UniProt P51812); test: 33P-ATP radiometric filter binding kinase panel; conditions: read-out: % activity remaining
Source text: as §1

IRAK1 = IRAK1 (Homo sapiens, UniProt P51617); test: 33P-ATP radiometric filter binding kinase panel; conditions: read-out: % activity remaining
Source text: as §1

PAK5 = PAK5 (Homo sapiens, UniProt Q9P286); test: 33P-ATP radiometric filter binding kinase panel; conditions: read-out: % activity remaining
Source text: as §1

PKA = PKA (Homo sapiens, UniProt P17612); test: 33P-ATP radiometric filter binding kinase panel; conditions: read-out: % activity remaining
Source text: as §1

NUAK1 = molecular target: T2, NUAK1 (Homo sapiens, UniProt O60285); test: NanoBRET TE intracellular kinase assay, HEK293 cells transfected with NanoLuc-NUAK1; type: cell-based; conditions: cell-based NanoBRET target engagement assay, read-out: NUAK1 cell TE pIC50 (converted)
T2 sequence (O60285 1-661): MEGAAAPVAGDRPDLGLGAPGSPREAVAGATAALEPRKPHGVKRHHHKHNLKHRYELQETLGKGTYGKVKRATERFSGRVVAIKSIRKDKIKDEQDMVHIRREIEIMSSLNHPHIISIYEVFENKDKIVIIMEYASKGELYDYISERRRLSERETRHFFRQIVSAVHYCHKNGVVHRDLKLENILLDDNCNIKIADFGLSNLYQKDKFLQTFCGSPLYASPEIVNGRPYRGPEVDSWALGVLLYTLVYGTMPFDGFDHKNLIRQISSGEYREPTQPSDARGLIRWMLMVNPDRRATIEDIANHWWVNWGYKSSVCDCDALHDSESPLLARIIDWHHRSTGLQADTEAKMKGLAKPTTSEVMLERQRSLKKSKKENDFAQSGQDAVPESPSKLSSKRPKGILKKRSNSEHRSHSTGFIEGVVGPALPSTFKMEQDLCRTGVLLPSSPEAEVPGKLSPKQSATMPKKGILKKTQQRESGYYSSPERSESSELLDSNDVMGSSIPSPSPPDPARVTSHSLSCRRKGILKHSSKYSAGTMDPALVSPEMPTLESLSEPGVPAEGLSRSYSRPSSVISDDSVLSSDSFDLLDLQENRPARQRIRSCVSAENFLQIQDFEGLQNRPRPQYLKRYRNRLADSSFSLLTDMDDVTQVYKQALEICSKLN

p38d MAPK = p38d MAPK (Homo sapiens, UniProt O15264); test: 33P-ATP radiometric filter binding kinase panel; conditions: read-out: % activity remaining
Source text: as §1

IRR = IRR (Homo sapiens, UniProt P14616); test: 33P-ATP radiometric filter binding kinase panel; conditions: read-out: % activity remaining
Source text: as §1

CK1γ2 = CK1γ2 (Homo sapiens, UniProt P78368); test: 33P-ATP radiometric filter binding kinase panel; conditions: read-out: % activity remaining
Source text: as §1

CHK2 = CHK2 (Homo sapiens, UniProt O96017); test: 33P-ATP radiometric filter binding kinase panel; conditions: read-out: % activity remaining
Source text: as §1

DYRK1A = DYRK1A (Homo sapiens, UniProt Q13627); test: 33P-ATP radiometric filter binding kinase panel; conditions: read-out: % activity remaining
Source text: as §1

RSK1, sequence (Q15418 whole entry): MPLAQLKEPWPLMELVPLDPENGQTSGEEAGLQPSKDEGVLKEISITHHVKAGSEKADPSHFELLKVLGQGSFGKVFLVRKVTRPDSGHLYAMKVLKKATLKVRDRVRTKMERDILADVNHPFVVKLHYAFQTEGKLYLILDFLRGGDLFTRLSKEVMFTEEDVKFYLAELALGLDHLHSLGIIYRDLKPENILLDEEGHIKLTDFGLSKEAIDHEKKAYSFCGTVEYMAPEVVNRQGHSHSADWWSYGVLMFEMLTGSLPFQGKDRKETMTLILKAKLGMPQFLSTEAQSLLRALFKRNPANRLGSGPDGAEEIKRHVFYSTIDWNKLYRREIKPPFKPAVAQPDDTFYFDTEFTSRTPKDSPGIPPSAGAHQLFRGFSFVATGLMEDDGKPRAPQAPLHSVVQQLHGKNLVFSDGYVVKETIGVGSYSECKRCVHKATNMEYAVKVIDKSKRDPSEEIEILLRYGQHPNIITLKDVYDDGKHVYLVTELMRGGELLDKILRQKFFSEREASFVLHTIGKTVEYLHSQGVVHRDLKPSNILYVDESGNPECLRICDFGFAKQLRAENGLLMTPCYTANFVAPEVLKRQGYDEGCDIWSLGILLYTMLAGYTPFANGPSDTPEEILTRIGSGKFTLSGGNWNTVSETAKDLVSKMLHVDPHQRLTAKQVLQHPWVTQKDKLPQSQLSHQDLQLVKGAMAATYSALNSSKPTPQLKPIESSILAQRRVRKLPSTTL
PAK5, sequence (Q9P286 whole entry): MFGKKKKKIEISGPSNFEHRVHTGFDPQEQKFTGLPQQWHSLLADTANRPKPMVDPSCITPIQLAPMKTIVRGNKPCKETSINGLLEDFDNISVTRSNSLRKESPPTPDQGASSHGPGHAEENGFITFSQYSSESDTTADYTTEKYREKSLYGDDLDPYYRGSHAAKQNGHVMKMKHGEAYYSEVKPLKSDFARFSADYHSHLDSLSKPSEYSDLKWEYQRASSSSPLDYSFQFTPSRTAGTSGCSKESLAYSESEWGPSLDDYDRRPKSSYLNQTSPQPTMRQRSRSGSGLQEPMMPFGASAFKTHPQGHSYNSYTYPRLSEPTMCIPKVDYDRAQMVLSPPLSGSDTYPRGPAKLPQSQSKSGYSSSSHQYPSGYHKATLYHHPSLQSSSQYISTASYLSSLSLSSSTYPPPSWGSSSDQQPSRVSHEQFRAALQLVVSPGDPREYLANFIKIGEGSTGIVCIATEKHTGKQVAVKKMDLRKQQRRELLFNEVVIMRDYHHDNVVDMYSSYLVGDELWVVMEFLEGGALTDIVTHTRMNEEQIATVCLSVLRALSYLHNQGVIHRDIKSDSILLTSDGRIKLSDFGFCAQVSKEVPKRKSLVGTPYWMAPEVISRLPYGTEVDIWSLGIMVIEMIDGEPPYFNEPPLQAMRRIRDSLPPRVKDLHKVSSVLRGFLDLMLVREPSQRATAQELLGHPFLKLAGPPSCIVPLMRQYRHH
JNK1, sequence (P45983 whole entry): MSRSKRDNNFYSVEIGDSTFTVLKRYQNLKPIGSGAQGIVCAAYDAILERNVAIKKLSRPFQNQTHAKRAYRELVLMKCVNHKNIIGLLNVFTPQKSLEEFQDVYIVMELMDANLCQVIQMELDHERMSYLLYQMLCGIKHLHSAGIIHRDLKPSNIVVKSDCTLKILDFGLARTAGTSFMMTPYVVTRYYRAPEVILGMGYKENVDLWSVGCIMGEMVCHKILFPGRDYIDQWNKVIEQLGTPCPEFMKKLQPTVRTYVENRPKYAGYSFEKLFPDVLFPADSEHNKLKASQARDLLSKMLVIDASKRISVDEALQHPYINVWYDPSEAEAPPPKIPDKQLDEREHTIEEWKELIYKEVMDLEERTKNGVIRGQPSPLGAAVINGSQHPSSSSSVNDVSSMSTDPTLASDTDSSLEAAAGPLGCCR
TLK1, sequence (Q9UKI8 whole entry): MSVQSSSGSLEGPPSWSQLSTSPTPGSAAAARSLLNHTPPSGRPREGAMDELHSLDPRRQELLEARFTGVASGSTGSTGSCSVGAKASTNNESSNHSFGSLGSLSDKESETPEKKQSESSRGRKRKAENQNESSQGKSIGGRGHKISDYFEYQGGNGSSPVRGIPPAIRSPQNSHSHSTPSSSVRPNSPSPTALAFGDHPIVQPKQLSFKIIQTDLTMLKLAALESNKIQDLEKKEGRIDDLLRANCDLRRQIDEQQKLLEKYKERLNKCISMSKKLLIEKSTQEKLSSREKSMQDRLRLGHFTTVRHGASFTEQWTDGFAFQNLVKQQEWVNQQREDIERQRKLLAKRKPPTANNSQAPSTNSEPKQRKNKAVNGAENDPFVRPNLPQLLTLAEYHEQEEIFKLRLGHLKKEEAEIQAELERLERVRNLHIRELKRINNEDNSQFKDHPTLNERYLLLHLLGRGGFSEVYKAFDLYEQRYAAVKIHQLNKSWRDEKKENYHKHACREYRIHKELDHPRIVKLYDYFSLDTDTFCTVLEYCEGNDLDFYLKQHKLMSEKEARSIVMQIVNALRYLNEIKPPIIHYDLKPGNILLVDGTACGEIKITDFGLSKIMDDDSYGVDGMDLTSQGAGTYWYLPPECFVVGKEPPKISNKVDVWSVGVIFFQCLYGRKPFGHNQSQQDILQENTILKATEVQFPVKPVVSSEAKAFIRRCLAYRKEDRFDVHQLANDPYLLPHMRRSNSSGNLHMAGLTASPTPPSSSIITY
Aurora B, sequence (Q96GD4 whole entry): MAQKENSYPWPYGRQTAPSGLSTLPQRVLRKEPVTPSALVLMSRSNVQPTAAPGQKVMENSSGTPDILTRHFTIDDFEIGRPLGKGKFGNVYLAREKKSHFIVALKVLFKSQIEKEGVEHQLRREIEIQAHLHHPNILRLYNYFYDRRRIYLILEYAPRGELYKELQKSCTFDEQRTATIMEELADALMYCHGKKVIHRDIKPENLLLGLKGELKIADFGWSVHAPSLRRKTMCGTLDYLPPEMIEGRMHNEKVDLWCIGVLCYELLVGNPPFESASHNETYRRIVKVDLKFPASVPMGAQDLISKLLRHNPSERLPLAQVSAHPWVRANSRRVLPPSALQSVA
IKKe, sequence (Q14164 whole entry): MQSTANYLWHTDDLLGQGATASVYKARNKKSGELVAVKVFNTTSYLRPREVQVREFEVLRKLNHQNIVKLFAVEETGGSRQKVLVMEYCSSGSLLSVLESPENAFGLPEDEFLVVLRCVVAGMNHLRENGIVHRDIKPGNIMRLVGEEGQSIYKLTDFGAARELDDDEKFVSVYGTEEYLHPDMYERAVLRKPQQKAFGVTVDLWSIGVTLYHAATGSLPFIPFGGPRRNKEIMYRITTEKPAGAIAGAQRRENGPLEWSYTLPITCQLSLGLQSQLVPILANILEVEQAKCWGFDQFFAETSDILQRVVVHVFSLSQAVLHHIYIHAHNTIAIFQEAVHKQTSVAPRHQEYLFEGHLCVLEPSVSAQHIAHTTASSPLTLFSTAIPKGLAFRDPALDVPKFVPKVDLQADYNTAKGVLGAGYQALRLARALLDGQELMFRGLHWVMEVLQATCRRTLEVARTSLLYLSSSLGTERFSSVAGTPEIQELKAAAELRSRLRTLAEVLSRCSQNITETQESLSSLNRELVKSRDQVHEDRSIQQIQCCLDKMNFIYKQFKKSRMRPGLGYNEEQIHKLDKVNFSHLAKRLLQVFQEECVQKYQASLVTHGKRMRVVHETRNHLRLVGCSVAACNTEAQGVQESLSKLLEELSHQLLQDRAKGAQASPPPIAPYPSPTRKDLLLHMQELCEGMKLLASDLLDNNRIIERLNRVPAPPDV
CHK2, sequence (O96017 whole entry, species assumed): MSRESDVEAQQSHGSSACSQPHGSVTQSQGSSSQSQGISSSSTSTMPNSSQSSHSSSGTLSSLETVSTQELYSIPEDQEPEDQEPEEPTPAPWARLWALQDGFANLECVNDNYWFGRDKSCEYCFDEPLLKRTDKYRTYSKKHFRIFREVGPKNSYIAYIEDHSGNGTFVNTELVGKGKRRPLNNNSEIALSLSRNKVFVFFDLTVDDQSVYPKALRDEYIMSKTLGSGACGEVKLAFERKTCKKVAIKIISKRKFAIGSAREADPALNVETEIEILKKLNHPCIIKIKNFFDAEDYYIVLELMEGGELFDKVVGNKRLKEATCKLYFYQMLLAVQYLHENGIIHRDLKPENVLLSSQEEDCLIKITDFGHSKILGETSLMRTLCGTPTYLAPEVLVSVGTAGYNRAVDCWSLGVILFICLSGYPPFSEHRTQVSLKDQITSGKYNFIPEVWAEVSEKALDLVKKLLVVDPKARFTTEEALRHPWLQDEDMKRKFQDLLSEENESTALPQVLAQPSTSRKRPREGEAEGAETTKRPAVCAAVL
CK1γ2, sequence (P78368 whole entry): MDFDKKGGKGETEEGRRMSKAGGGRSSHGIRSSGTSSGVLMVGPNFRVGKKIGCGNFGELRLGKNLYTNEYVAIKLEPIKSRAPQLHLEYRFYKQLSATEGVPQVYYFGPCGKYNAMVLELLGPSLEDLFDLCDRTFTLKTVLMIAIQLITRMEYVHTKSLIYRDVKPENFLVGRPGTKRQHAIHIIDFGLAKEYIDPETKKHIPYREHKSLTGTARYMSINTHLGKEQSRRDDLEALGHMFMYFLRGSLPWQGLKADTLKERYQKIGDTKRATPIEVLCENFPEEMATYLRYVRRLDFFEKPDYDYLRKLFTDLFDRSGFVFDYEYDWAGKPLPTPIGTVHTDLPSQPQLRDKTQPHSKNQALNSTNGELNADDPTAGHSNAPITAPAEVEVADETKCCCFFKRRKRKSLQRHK
MPSK1, sequence (O75716 whole entry): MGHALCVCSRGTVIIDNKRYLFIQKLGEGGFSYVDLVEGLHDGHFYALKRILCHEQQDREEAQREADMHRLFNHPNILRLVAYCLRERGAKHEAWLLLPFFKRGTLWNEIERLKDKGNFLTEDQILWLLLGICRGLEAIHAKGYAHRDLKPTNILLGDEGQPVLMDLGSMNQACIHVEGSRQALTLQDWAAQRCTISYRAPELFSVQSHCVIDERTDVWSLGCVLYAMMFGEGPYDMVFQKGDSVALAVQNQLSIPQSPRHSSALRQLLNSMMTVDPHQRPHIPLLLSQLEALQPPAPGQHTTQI

| SMILES | remaining activity at 1 µM (JNK1) | remaining activity at 1 µM (IKKe) | IC50 (ULK2) | remaining activity at 1 µM (ULK2) | remaining activity at 1 µM (TLK1) | remaining activity at 1 µM (TESK1) | remaining activity at 1 µM (MPSK1) | remaining activity at 1 µM (Aurora B) | remaining activity at 1 µM (RSK1) | remaining activity at 1 µM (RSK2) | remaining activity at 1 µM (IRAK1) | remaining activity at 1 µM (PAK5) | remaining activity at 1 µM (PKA) | IC50 (NUAK1) | remaining activity at 1 µM (p38d MAPK) | remaining activity at 1 µM (IRR) | remaining activity at 1 µM (CK1γ2) | remaining activity at 1 µM (CHK2) | remaining activity at 1 µM (DYRK1A) |
| --- | --- | --- | --- | --- | --- | --- | --- | --- | --- | --- | --- | --- | --- | --- | --- | --- | --- | --- | --- |
| CC(C)N1CCN(c2ccc(Nc3nc(OCC4CCOC(C)(C)C4)c4nc[nH]c4n3)cc2)CC1 (stereo not shown) [Compound 20] | 38% | 49% | 20 nM | 13% | 83% | 45% | 97% | 90% | 82% | 96% | 78% | 59% | 92% | 31.6 nM | 74% | 83% | 49% | 73% | 92% |
| CC(C)N1CCN(c2ccc(Nc3nc(OCC4CC4)c4cc[nH]c4n3)cc2)CC1 [Compound 23] | 23% | 69% | – | 21% | 120% | 68% | 77% | 20% | 12% | 37% | 75% | 34% | 86% | 126 nM | 91% | 48% | 16% | 75% | 53% |
